Assay results: patent publication US20240122179A1, “AUXINIC HERBICIDES AND METHODS OF USE THEREOF” (CORTEVA AGRISCIENCE LLC, priority 2021, published 2024)
Where two headings read alike, the source gives them in different places.

Legend:
[1] = tested on: Amaranthus palmeri (AMAPA); assay: Postemergence herbicide evaluation, percent reduction in plant size vs untreated control, 21 days after treatment; assay type: in vivo, Amaranthus palmeri (Palmer amaranth); conditions: post-emergence, 504 h, postemergence, read-out: Control/Injury; for pest or weed control at 140 g/ha: rate 140 g ae/ha; for pest or weed control at 280 g/ha: rate 280 g ae/ha
In short: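 Greenhouse-grown Palmer amaranth (25 to 28° C, 16 h light) sprayed postemergence at the 2 to 8 leaf stage with 140 or 280 g ae/ha in acetone/DMSO-based solution containing crop oil concentrate, 187 L/ha by track sprayer. Three to four replicates; plant size measured 21 days after treatment as percent reduction versus untreated control.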

[2] = tested on: Conyza canadensis (L.) (ERICA); assay: as above; assay type: in vivo, Conyza canadensis (L.) (Horseweed); conditions: Erigeron canadensis, post-emergence, 504 h, ERICA, postemergence, read-out: Control/Injury; for pest or weed control at 140 g/ha: rate 140 g ae/ha; for pest or weed control at 280 g/ha: rate 280 g ae/ha
In short: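 Horseshoe-weed (horseweed) seedlings at 2 to 8 leaf stage in greenhouse (25-28° C, 16 h light), sprayed postemergence at 140 or 280 g ae/ha in acetone/DMSO-based spray solution, 187 L/ha track-sprayer. Randomized complete block, 3-4 replicates; plant size measured 21 days after treatment as percent reduction vs untreated controls.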

Glycine max = assay: whole plant or invertebrate; conditions: for plant injury at 140 g/ha / plant injury at 280 g/ha: Glycine max, post-emergence, 504 h, read-out: Control/Injury; for Control/Injury: in vivo
Procedure: Plants were grown in a soil media composed of 90% by volume Promix BX (Premier Tech Horticulture, Quakertown, PA) and 10% Profile Greens Grade (Profile Products LLC, Buffalo Grove, IL). Promix BX contains approximately 83% Sphagnum Peat Moss, 13% Perlite, 5% vermiculite, and proprietary amounts of limestone, starter fertilizer, and wetting agent. Profile Greens Grade is a sand-sized granule formed from calcining illite and montmorillonite clay. Several seeds of each species were planted in 10 cm square pots and top watered twice daily. Plant material was propagated in a warm greenhouse with temperature ranging from 25 to 28° C. and 50 to 60% relative humidity at the Corteva Global Headquarters (Indianapolis, Indiana, USA). Natural light was supplemented with 1000-watt metal halide overhead lamps with an average illumination of 500 μE m^−2 s^−1 photosynthetic active radiation for 16 consecutive hours each day. Plants were top-watered prior to herbicide application and sub-watered after herbicide application.
Appropriate amounts of test materials were weighed out into glass vials in their technical form to deliver either 140 or 280 g acid equivalent (ae)/ha. The samples were dissolved in 3 ml of Solvent 1. Solvent 1 is 97% acetone and 3% dimethyl sulfoxide and serves as a general-purpose solvent (GPS) for dissolving technical materials. […] The samples were then diluted to their final concentration using 17 ml of solvent 2 for a total of 20 ml of spray solution. Solvent 2 contains 41.58% GPS, 45.53% water, 11.88% isopropyl alcohol, 0.99% crop oil concentrate and 0.02% Trition X-155 surfactant. All percentages are listed on a volume basis. Dicamba diglycolamine was applied as a formulated herbicide, Clarity™ and diluted with solvent 2 to compare all materials in the same spray solution.
Herbicide applications were made to 3 to 4 replicates of each plant species at the 2 to 8 leaf stage, depending on the species. Treatments were applied with a research track-sprayer (Generation III Research Sprayer manufactured by DeVries Manufacturing in Hollandale, MN, USA) calibrated to deliver a spray volume of 187 L/ha. The track-sprayer was fitted with an 8003E nozzle from Spray Systems Company (North Avenue and Schmale Road, P.O. Box 7900, Wheaton, IL 60187), and used a spray pressure of 276 kPa pressure and a speed of 3.1 km/h. The nozzle height was 46 cm above the plant canopy. The experimental design used for the trials was a randomized complete block with 3 or 4 replications per treatment. After application, plants were placed on carts according to the randomization and returned to the greenhouse. Plants were sub-watered after treatment with Indianapolis city water or fertilized three times a week with a commercial fertilizer solution (Jack's Professional 15-5-15 4 Ca 2 Mg fertilizer (manufactured by JR PETERS INC., 6656 Grant Way, Allentown, PA 18106; www.jrpeters.com). Percent visual control assessments were made on a scale of 0 to 100% (where 0 was no control and 100 was complete plant death) at 7, 14, and 21 days after treatment.
In conformity with the methods outlined in Example 49, the effect of representative experimental compounds on the growth of Glycine max was determined at 2 different levels (respectively, 140 and 280 g acid equivalent (ae)/ha) of the experimental actives tested. Plants were treated with one of the compounds, a control plant was not treated. Twenty-one days after treatment, the plants were measured. The data is present as a percent reduction in plant size relative to the untreated control.

[3] = tested on: Ambrosia artemisiifolia (AMBEL); assay: Postemergence herbicide evaluation, percent reduction in plant size vs untreated control, 21 days after treatment; assay type: in vivo, Ambrosia artemisiifolia (common ragweed); conditions: post-emergence, 504 h, AMBEL, postemergence, read-out: Control/Injury; for pest or weed control at 140 g/ha: rate 140 g ae/ha; for pest or weed control at 280 g/ha: rate 280 g ae/ha
In short: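 Greenhouse-grown plants (25–28 °C, 16 h light) were sprayed postemergence at the 2–8 leaf stage with 140 or 280 g ae/ha in acetone/DMSO-based spray solution with crop oil and surfactant, at 187 L/ha by track sprayer. There were 3–4 replicates. Plant size was measured 21 days after treatment versus untreated plants.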

Kochia scoparia (KCHSC) = assay: as above; assay type: in vivo; conditions: Bassia scoparia, post-emergence, 504 h, KCHSC, postemergence, read-out: Control/Injury; for pest or weed control at 140 g/ha: rate 140 g ae/ha; for pest or weed control at 280 g/ha: rate 280 g ae/ha
In short: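 Greenhouse-grown plants (25-28 °C, 16 h light) at the 2 to 8 leaf stage were track-sprayed postemergence at 140 or 280 g ae/ha in acetone/DMSO-based spray solution with crop oil and surfactant, at 187 L/ha, in 3-4 randomized replicates.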

Amaranthus rudis (AMATA) = assay: as above; assay type: in vivo, Amaranthus rudis (tall water hemp); conditions: Amaranthus tuberculatus, post-emergence, 504 h, AMATA, postemergence, read-out: Control/Injury; for pest or weed control at 140 g/ha: rate 140 g ae/ha; for pest or weed control at 280 g/ha: rate 280 g ae/ha
In short: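 Greenhouse-grown tall waterhemp (25-28° C, 16 h light) at the 2-8 leaf stage, treated by track sprayer at 187 L/ha with compound at 140 or 280 g ae/ha in acetone/DMSO-based spray solution with crop oil and surfactant. 3-4 replicates per treatment, randomized complete block; plant size reduction versus untreated control measured 21 days after treatment.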

[4] = R-AMAPA, percent reduction vs untreated control, 21 days after treatment
[5] = percent reduction vs untreated control, 21 days after treatment
[6] = percent reduction vs untreated, 21 days after treatment

Structure (SMILES)	pest or weed control at 140 g/ha [1, 4] [%]	pest or weed control at 280 g/ha [1, 4] [%]	pest or weed control at 140 g/ha [2, 5] [%]	pest or weed control at 280 g/ha [2, 5] [%]	plant injury at 140 g/ha (Glycine max) [%]	plant injury at 280 g/ha (Glycine max) [%]	pest or weed control at 140 g/ha [3] [%]	pest or weed control at 280 g/ha [3] [%]	pest or weed control at 140 g/ha (Kochia scoparia (KCHSC); [5]) [%]	pest or weed control at 280 g/ha (Kochia scoparia (KCHSC); [5]) [%]	pest or weed control at 140 g/ha (Amaranthus rudis (AMATA)) [%]	pest or weed control at 280 g/ha (Amaranthus rudis (AMATA)) [%]	Control/Injury (Glycine max)	also measured
COc1c(Cl)ccc(Cl)c1C(=O)ON1CCCCC1 [Compound A-92]	78	80	85	92	2	4	92	96	83	98	63	92	–	–
CCOC(=O)/C(C#N)=N/OC(=O)c1c(Cl)ccc(Cl)c1OC [Compound A-86]	72	73	87	95	32	25	88	91	90	97	63	67	–	–
COc1c(Cl)ccc(Cl)c1C(=O)ON1C(=O)CCC1=O [Compound A-73]	70	83	85	80	–	4	77	82	–	–	50	88	1	pest or weed control at 140 g/ha (Kochia scoparia (KCHSC)): 82%; pest or weed control at 280 g/ha (Kochia scoparia (KCHSC)): 88%
COc1c(Cl)ccc(Cl)c1C(=O)ONC(=O)c1cccnc1 [Compound A-94]	73	80	62	77	12	3	75	83	85	93	68	–	15	pest or weed control at 140 g/ha ([1]; AMAPA): 83%; pest or weed control at 280 g/ha ([1]; AMAPA): 99%; pest or weed control at 140 g/ha [2]: 95%; pest or weed control at 280 g/ha [2]: 99%; pest or weed control at 140 g/ha (Kochia scoparia (KCHSC); [6]): 93%; pest or weed control at 280 g/ha (Kochia scoparia (KCHSC); [6]): 98%
COc1c(Cl)ccc(Cl)c1C(=O)ON(C)C(=O)Nc1ccccc1 [Compound A-75]	73	91	72	73	3	3	82	88	–	–	58	85	–	pest or weed control at 140 g/ha (Kochia scoparia (KCHSC)): 88%; pest or weed control at 280 g/ha (Kochia scoparia (KCHSC)): 97%
COc1c(Cl)ccc(Cl)c1C(=O)O/N=C/c1cccnc1 [Compound A-81]	17	15	0	7	19	20	15	27	2	7	3	8	–	–
COc1c(Cl)ccc(Cl)c1C(=O)ONC(=O)c1ccccc1 [Compound A-89]	70	88	77	95	13	5	80	90	84	95	63	78	–	–
COCCONC(=O)c1c(Cl)ccc(Cl)c1OC [Compound A-95]	42	55	8	17	4	6	–	–	57	77	–	–	15	pest or weed control at 140 g/ha ([1]; AMAPA): 5%; pest or weed control at 280 g/ha ([1]; AMAPA): 13%; pest or weed control at 140 g/ha [2]: 3%; pest or weed control at 280 g/ha [2]: 5%; pest or weed control at 140 g/ha (Kochia scoparia (KCHSC); [6]): 3%; pest or weed control at 280 g/ha (Kochia scoparia (KCHSC); [6]): 3%
